Measurements published in publication PMC8698521 (RSC Advances, 2021).

Tests used:
Experiment in all cases: Glycosidase inhibition, spectrophotometric p-nitrophenyl glycoside assay
[1] = biological target: α-Glucosidase from Saccharomyces cerevisiae (Saccharomyces cerevisiae, UniProt P53341); conditions: pH 7.2, read-out: Percentage inhibition (%) at 1 mM concentration of the inhibitor
[2] = tested on: β-Glucosidase from almonds; conditions: 1 mM inhibitor; 37 °C, 30 min; NI = no inhibition up to 20 mM
[3] = tested on: β-Mannosidase from Helix pomatia
[4] = biological target: T1, α-Mannosidase from jack bean (Canavalia ensiformis, UniProt C0HJB3); conditions: for inhibition at 1000 µM: pH 4.5, read-out: Percentage inhibition (%) at 1 mM concentration of the inhibitor
T1 sequence (C0HJB3 1-981): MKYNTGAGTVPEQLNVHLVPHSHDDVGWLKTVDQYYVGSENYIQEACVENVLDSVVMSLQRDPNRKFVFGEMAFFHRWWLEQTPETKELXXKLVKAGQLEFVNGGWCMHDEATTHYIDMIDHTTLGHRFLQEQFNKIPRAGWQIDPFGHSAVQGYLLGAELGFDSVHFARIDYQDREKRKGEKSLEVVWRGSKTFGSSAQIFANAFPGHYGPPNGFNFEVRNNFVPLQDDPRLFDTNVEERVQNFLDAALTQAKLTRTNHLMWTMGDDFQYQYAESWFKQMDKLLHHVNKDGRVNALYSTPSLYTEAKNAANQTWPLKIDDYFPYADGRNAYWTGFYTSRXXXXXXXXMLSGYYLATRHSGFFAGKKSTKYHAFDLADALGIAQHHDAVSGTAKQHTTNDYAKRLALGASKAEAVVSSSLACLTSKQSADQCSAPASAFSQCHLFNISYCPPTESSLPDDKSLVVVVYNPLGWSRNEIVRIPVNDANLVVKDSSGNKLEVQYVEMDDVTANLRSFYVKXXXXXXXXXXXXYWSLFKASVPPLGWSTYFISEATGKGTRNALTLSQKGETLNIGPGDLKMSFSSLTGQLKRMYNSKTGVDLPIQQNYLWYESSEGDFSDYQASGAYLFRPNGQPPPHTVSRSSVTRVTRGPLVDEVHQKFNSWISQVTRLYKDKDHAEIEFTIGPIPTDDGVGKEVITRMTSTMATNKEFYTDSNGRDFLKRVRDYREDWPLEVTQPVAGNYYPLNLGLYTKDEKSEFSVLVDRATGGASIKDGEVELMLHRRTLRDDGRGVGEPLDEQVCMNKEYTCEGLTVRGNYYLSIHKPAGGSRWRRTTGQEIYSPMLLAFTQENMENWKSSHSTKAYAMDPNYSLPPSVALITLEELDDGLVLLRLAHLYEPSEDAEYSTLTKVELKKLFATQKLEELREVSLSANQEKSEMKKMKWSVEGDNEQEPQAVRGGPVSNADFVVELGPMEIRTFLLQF

[5] = biological target: T2, β-Galactosidase from Aspergillus oryzae (Aspergillus oryzae, UniProt Q2UCU3)
T2 sequence (Q2UCU3 19-1005): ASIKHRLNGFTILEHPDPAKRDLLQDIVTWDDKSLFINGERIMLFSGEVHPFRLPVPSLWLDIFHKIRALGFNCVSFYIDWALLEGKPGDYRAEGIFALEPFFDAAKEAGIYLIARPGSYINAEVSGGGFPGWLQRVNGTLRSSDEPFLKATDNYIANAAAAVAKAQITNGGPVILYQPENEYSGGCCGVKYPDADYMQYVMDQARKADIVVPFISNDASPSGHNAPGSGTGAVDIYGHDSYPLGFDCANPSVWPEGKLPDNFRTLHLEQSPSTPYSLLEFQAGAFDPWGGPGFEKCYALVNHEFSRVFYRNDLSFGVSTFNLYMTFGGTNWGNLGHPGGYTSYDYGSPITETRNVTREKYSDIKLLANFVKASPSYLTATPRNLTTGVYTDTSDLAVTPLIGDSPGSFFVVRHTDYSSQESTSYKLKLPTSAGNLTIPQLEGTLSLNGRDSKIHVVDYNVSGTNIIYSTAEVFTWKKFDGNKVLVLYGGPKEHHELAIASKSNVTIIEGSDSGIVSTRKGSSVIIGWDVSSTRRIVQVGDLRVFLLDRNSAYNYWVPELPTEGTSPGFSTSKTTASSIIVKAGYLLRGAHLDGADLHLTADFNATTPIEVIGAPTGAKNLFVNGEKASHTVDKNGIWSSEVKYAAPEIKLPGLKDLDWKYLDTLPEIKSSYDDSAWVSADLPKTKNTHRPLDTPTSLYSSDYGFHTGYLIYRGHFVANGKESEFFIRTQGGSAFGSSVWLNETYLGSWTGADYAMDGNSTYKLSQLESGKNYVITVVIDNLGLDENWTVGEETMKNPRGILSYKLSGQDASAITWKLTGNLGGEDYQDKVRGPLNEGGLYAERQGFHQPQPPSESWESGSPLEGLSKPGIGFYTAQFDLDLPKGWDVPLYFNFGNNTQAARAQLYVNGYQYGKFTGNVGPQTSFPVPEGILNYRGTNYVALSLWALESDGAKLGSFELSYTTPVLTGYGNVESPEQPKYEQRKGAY

[6] = biological target: α-Galactosidase from green coffee beans (Coffea arabica, UniProt Q42656)
Sequence of α-Galactosidase from green coffee beans (Q42656 16-378): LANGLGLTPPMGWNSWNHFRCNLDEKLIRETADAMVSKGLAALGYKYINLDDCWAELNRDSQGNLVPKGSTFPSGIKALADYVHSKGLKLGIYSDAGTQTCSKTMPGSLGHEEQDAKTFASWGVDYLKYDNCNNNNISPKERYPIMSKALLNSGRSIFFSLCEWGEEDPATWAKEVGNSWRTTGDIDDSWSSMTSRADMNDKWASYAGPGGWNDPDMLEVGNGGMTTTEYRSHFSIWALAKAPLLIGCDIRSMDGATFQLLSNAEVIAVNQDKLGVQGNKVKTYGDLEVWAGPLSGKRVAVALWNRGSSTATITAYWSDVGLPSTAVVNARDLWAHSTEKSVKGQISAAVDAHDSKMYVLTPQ

Sequence of α-Glucosidase from Saccharomyces cerevisiae (P53341 whole entry): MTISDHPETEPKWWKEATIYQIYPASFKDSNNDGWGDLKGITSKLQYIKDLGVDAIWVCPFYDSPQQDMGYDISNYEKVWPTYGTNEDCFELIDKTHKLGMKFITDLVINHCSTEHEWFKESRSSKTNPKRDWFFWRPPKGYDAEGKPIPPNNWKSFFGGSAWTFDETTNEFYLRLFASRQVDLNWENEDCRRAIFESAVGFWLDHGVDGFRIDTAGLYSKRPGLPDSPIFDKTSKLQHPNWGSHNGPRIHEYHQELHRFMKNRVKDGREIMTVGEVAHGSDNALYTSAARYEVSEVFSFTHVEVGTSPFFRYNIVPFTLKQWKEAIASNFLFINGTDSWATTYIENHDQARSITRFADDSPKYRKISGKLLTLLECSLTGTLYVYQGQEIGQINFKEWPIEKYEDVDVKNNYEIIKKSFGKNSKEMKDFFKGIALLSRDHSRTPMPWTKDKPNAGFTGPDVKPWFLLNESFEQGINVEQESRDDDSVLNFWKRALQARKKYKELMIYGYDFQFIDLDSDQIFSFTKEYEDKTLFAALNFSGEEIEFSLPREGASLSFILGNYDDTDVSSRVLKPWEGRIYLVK

Row | SMILES | inhibition at 1000 µM [1] | Percentage inhibition (%) at 1 mM concentration of the inhibitor [2] | inhibition as stated in text [3] | inhibition as stated in text [4] | inhibition at 1000 µM [4] | inhibition as stated in text [5] | inhibition at 1000 µM ([5]; pH 7.2, read-out: Percentage inhibition (%) at 1 mM concentration of the inhibitor) | inhibition as stated in text [6] | inhibition at 1000 µM ([6]; pH 6.8, read-out: Percentage inhibition (%) at 1 mM concentration of the inhibitor)
1 | O=C1CC=C(CO)[C@@H](O)[C@H](O)[C@@H]1O [Compound 4, (5R,6S,7S)-5,6,7-Trihydroxy-4-(hydroxymethyl)cyclohept-3-enone] | 41.1% | 12.3% | could inhibit |  |  |  |  |  | 
2 | OCC1=CC[C@H](O)[C@@H](O)[C@@H](O)[C@@H]1O [Compound 5, (1S,2R,3S,4R)-5-(Hydroxymethyl)cyclohept-5-ene-1,2,3,4-tetraol] | 3.3% |  |  | inhibited | 12.5% |  |  |  | 
3 | C[C@@H]1CC[C@@H](O)[C@@H](O)[C@@H](O)[C@@H]1O [Compound 16, (1R,2R,3S,4R,5R)-5-Methylcycloheptane-1,2,3,4-tetraol] |  | 29.8% |  | inhibited | 35.1% | inhibits | 12.8% |  | 
4 | C[C@H]1CC[C@@H](O)[C@@H](O)[C@@H](O)[C@@H]1O [Compound 15, (1R,2R,3S,4R,5S)-5-Methylcycloheptane-1,2,3,4-tetraol] | 19.5% | 14.1% |  | inhibited | 10.6% |  |  |  | 
5 | OCC1=CC[C@@H](O)[C@@H](O)[C@@H](O)[C@@H]1O [Compound 6, (1R,2R,3S,4R)-5-(Hydroxymethyl)cyclohept-5-ene-1,2,3,4-tetraol] | 22.1% | 3.2% |  |  |  |  |  | inhibited | 41.7%
